Reference: US5167963A, “8,10-dideazatetrahydrofolic acid derivatives” (SRI International, priority 1990, dated 1992)
Like-named read-outs stand apart in the source and are kept apart here.

Legend:
L1210 cells = test: Growth inhibition assay for L1210 cells; format: cell-based; conditions: Mus musculus; 72 hours, murine L1210 cells, RPMI 1640 with 10% fetal calf serum
Excerpt: Murine L1210 cells were obtained as intraperitoneal ascites suspensions from BD2F1 mice. […] Cultures in the logarithmic stage of growth were harvested, resuspended and exposed to test compounds at varying concentrations. Growth of controls was monitored to verify that the growth pattern was normal.

dihydrofolate reductase = conditions: in words; from prior literature/patents; cited from earlier work
[1] = in words; DeGraw et al; cited from earlier work
thymidylate synthase = conditions: in words; J. A. R. Mead et al., Cancer Research (1966); cited from earlier work
[2] = target: T1, glycinamide ribotide formyl transferase (FGAR) (Lacticaseibacillus casei, UniProt A0AAN1KEB7); test: Enzyme assay for FGAR (glycinamide ribotide formyl transferase) inhibition; format: biochemical, Lactobacillus casei; conditions: in words
T1 sequence (A0AAN1KEB7 1-189): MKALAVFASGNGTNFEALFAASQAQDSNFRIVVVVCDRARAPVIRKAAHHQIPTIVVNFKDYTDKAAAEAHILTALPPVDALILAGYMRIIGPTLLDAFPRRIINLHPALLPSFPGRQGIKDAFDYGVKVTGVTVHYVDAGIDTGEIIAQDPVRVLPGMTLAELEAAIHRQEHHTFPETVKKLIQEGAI
Experimental: Inhibition of the glycinamide ribotide formyl transferase (FGAR) and amino-imidazole carboxamide ribotide formyl transferase (AICAR) enzymes was determined by the following test procedure.
Lactobacillus casei extract protein (20 μg) is incubated with 45 μmol of Tris-HCl buffer; pH 7.5, 90 μmol of 2-mercaptoethanol, 0.20 μmol of α,β-glycine-amideribotide and 50 nmol of (6R)-10-formyltetrahydrofolate in 0.9 ml for 1 minute at 30° C. The formation of tetrahydrofolate is followed by change in the ultraviolet maximum at 298 nm. For assay of inhibition the test compounds are added along with the 6R-10-formyl FAHy and the concentration that inhibits the reaction by 50% (Ic50) is determined.

[3] = Cytotoxicity (focus and potency of cytotoxic action); format: cell-based; conditions: in words
L1210 leukemia = conditions: in words, Taylor et al, U.S. Pat. No. 4,684,653, cited from earlier work

IC50 (L1210 cells) [nM]	SMILES	inhibition of dihydrofolate reductase (dihydrofolate reductase)	other results
657	Nc1nc2c(c(=O)[nH]1)N(C=O)C(CCc1ccc(C(=O)NC(CCC(=O)O)C(=O)O)cc1)CC2 (stereo not drawn) [Compound 5]	–	–
38.2	CN1c2c(nc(N)[nH]c2=O)CCC1CCc1ccc(C(=O)N[C@@H](CCC(=O)O)C(=O)O)cc1 (stereo partly drawn) [Compound 4, 5-Methyl-8,10-dideaza-5,6,7,8-tetrahydrofolic Acid]	–	–
96.8	Nc1nc2c(c(=O)[nH]1)NC(CCc1ccc(C(=O)N[C@@H](CCC(=O)O)C(=O)O)cc1)CC2 (stereo partly drawn) [Compound 3, 8,10-Dideaza-5,6,7,8-tetrahydrofolic Acid]	–	–
–	Nc1nc2ccc(CCc3ccc(C(=O)N[C@@H](CCC(=O)O)C(=O)O)cc3)nc2c(=O)[nH]1 [8,10-dideazafolic acid]	did not significantly affect DHFR	antifolate activity [1]: active antifolates
–	Nc1nc2c(c(=O)[nH]1)N[C@@H](CCNc1ccc(C(=O)NC(CCC(=O)O)C(=O)O)cc1)CN2 (stereo partly drawn) [tetrahydrohomofolate]	–	inhibition of thymidylate synthetase in vitro (thymidylate synthase): potent inhibitor
–	Nc1nc2c(c(=O)[nH]1)CC(CCc1ccc(C(=O)N[C@@H](CCC(=O)O)C(=O)O)cc1)CC2 (stereo partly drawn) [5,8, 10-trideaza FH4]	–	inhibition of glycinamide ribotide transformylase (GAR transformylase, FGAR) [2]: devoid of enzyme or cytotoxic action; cytotoxic action [3]: devoid of enzyme or cytotoxic action
–	Nc1nc2ccc(CNc3ccc(C(=O)N[C@@H](CCC(=O)O)C(=O)O)cc3)nc2c(=O)[nH]1 [8-deazafolic acid]	did not significantly affect DHFR	–

SMILES	IC50 (L1210 cells) [nM]	inhibition of dihydrofolate reductase (dihydrofolate reductase)	other results
CN(Cc1cnc2nc(N)nc(N)c2n1)c1ccc(C(=O)N[C@@H](CCC(=O)O)C(=O)O)cc1 [Compound 1, methotrexate]	4.3	inhibiting dihydrofolate reductase (DHFR)	–
Nc1nc2c(c(=O)[nH]1)CC(CCc1ccc(C(=O)N[C@@H](CCC(=O)O)C(=O)O)cc1)CN2 (stereo partly drawn) [Compound 2, N-(4-[2-(2-amino-4-hydroxy-5,6,7,8-tetrahydropyrido[2,3-d]pyrimidin-6-yl)-ethyl]benzoyl)-L-glutamic acid]	42	weak inhibitor of dihydrofolate reductase	inhibition of glycinamide ribotide transformylase (GAR transformylase, FGAR) ([2]; listed as DDTHF): potent inhibitor of GAR transformylase; inhibition of glycinamide ribotide transformylase (GAR transformylase, FGAR) ([2]; listed as Taylor et al compound): clearly an inhibitor of FGAR; cytotoxic action [3]: potent cytotoxin; activity against L1210 leukemia (L1210 leukemia; listed as N-(4-[2-(2-amino-4-hydroxy-5,6,7,8-tetrahydropyrido[2,3-d]pyrimidin-6-yl)- e thy): good activity against L-1210 leukemia which is comparable to methotrexate; activity against L1210 leukemia (L1210 leukemia; listed as N-(4-[2-(2-amino-4-hydroxy-5,6,7,8-tetrahydropyrido[2,3-d]pyrimidin-6-yl)- ethyl): good activity against L1210 leukemia which is comparable to methotrexate
